Measurements reported in patent US20260125382A1, “COMPOUNDS FOR INHIBITING OR DEGRADING CDK2 AND/OR CDK9 AND MEDICINAL USE THEREOF” (KOREA RESEARCH INSTITUTE OF CHEMICAL TECHNOLOGY, priority 2022, published 2026).

Legend:
CDK9 = biological target: T1, CDK9 (Homo sapiens, UniProt P50750); test: CDK protein degradation activity (Western blotting), CDK9; format: cell-based; details: MDA-MB-231 cells, 16 hours, Western blot
T1 construct: endogenous in cells; host or cells: MDA-MB-231
In short: (§1)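 CDK2 and CDK9 protein levels measured by Western blot with densitometry, using tubulin as loading reference. Cells were MDA-MB-231, exposed for 16 h to 100 nM, 1 μM or 10 μM compound or to DMSO.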

CDK2 = biological target: T2, CDK2 (Homo sapiens, UniProt P24941); test: CDK protein degradation activity (Western blotting), CDK2; format: cell-based; details: MDA-MB-231 cells, 16 hours, Western blot
T2 construct: endogenous in cells; host or cells: MDA-MB-231
In short: as §1

T1 sequence (P50750 whole entry): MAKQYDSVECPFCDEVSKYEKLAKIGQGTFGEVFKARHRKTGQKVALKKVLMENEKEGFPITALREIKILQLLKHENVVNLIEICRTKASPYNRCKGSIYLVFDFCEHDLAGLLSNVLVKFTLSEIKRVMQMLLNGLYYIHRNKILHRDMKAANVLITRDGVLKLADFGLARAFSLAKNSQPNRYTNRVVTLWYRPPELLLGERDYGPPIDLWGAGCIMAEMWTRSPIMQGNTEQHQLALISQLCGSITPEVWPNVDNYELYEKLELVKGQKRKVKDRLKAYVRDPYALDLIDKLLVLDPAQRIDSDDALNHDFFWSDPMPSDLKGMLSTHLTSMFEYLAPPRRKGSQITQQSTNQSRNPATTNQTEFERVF

| SMILES | Enzyme degradation CDK9 (% remaining) @ 0.1 μM (CDK9) | Enzyme degradation CDK9 (% remaining) @ 1 μM (CDK9) | Enzyme degradation CDK9 (% remaining) @ 10 μM (CDK9) | Enzyme degradation CDK2 (% remaining) @ 0.1 μM (CDK2) | Enzyme degradation CDK2 (% remaining) @ 1 μM (CDK2) | Enzyme degradation CDK2 (% remaining) @ 10 μM (CDK2) |
| --- | --- | --- | --- | --- | --- | --- |
| O=C1CCC(N2C(=O)c3cccc(NCC(=O)N4CCC(CN5CCC(c6ccc(Nc7ncnc8c7ncn8[C@H]7C[C@@H](NC(=O)Cc8ccccc8)C7)cc6)CC5)CC4)c3C2=O)C(=O)N1 (stereo partly drawn) [Compound 288, N-((1s,3s)-3-(6-((4-(1-((1-((2-(2,6-dioxopiperidin-3-yl)-1,3-dioxoisoindolin-4-yl)glycyl)piperidin-4-yl)methyl)piperidin-4-yl)phenyl)amino)-9H-purin-9-yl)cyclobutyl)-2-phenylacetamide] | 0/0/0% | 0/0/0% | 0/0/0% | 10% | 20% | 20% |
| O=C1CC[C@@H](c2cccc(OCC(=O)N3CCC4(CC3)CC(N3CCC(c5ccc(Nc6ncnc7c6ncn7C6CC(NC(=O)Cc7ccccc7)C6)cc5)CC3)C4)c2)C(=O)N1 (stereo partly drawn) [Compound 285, N-((1s,3s)-3-(6-((4-(1-(7-(2-(3-(2,6-dioxopiperidin-3-yl)phenoxy)acetyl)-7-azaspiro[3.5]nonan-2-yl)piperidin-4-yl)phenyl)amino)-9H-purin-9-yl)cyclobutyl)-2-phenylacetamide] | 0/0/0% | 0/0/0% | 0/0/0% | 10% | 20% | 20% |
| O=C1CCC(N2C(=O)c3cccc(NCC(=O)N4CCC5(CC4)CC(N4CCC(c6ccc(Nc7ncnc8c7ncn8[C@H]7C[C@@H](NC(=O)Cc8ccccc8)C7)cc6)CC4)C5)c3C2=O)C(=O)N1 (stereo partly drawn) [Compound 294, N-((1s,3s)-3-(6-((4-(1-(7-((2-(2,6-dioxopiperidin-3-yl)-1,3-dioxoisoindolin-4-yl)glycyl)-7-azaspiro[3.5]nonan-2-yl)piperidin-4-yl)phenyl)amino)-9H-purin-9-yl)cyclobutyl)-2-phenylacetamide] | 0/0/0% | 0/0/0% | 0/0/0% | 10/10/10% | 10/10/10% | 10/10/10% |
| O=C1CC[C@H](N2C(=O)c3ccc(N4CCC5(CC4)CC(N4CCN(c6ccc(Nc7ncnc8c7ncn8C7CC(NC(=O)c8c(Cl)cccc8Cl)C7)cc6)CC4)C5)cc3C2=O)C(=O)N1 (stereo partly drawn) [Compound 315, 2,6-dichloro-N-((1s,3s)-3-(6-((4-(4-(7-(2-(2,6-dioxopiperidin-3-yl)-1,3-dioxoisoindolin-5-yl)-7-azaspiro[3.5]nonan-2-yl)piperazin-1-yl)phenyl)amino)-9H-purin-9-yl)cyclobutyl)benzamide] | 0/0/0% | 0/0/0% | 0/0/0% | 10% | 20% | 30% |
| O=C1CCN(c2coc3cc(C(=O)N4CCC(CN5CCN(c6ccc(Nc7ncnc8c7ncn8[C@H]7C[C@@H](NC(=O)Cc8ccccc8)C7)cc6)CC5)CC4)ccc23)C(=O)N1 [Compound 187, N-((1s,3s)-3-(6-((4-(4-((1-(3-(2,4-dioxotetrahydropyrimidin-1(2H)-yl)benzofuran-6-carbonyl)piperidin-4-yl)methyl)piperazin-1-yl)phenyl)amino)-9H-purin-9-yl)cyclobutyl)-2-phenylacetamide] | 10% | 0% | 0% | 30% | 10% | 20% |
| N#Cc1cccc(C(=O)NC2CC(n3cnc4c(Nc5ccc(N6CCN(CC7CCN(C(=O)C8CCN(c9cc%10c(cc9F)C(=O)N([C@H]9CCC(=O)NC9=O)C%10=O)CC8)CC7)CC6)cc5)ncnc43)C2)n1 (stereo partly drawn) [Compound 472, 6-cyano-N-((1s,3s)-3-(6-((4-(4-((1-(1-(2-(2,6-dioxopiperidin-3-yl)-6-fluoro-1,3-dioxoisoindolin-5-yl)piperidin-4-carbonyl)piperidin-4-yl)methyl)piperazin-1-yl)phenyl)amino)-9H-purin-9-yl)cyclobutyl)picolinamide] | 0/0/0% | 0/0/0% | 0/0/0% | 40% | 40% | 50% |
| O=C1CC[C@H](N2C(=O)c3cccc(CCCN4CCC(CN5CCN(c6ccc(Nc7ncnc8c7ncn8C7CC(NC(=O)c8cccc(C(F)(F)F)n8)C7)cc6)CC5)CC4)c3C2=O)C(=O)N1 (stereo partly drawn) [Compound 426, N-((1s,3s)-3-(6-((4-(4-((1-(3-(2-(2,6-dioxopiperidin-3-yl)-1,3-dioxoisoindolin-4-yl)propyl)piperidin-4-yl)methyl)piperazin-1-yl)phenyl)amino)-9H-purin-9-yl)cyclobutyl)-6-(trifluoromethyl)picolinamide] | 0% | 0% | 20% | 10% | 10% | 30% |
| N#Cc1cccc(C(=O)N[C@H]2C[C@@H](n3cnc4c(Nc5ccc(N6CCN(CC7CCN(C(=O)C8CCN(c9ccc%10c(c9)C(=O)N(C9CCC(=O)NC9=O)C%10=O)CC8)CC7)CC6)cc5)ncnc43)C2)n1 (stereo partly drawn) [Compound 455, 6-cyano-N-((1s,3s)-3-(6-((4-(4-((1-(1-(2-(2,6-dioxopiperidin-3-yl)-1,3-dioxoisoindolin-5-yl)piperidin-4-carbonyl)piperidin-4-yl)methyl)piperazin-1-yl)phenyl)amino)-9H-purin-9-yl)cyclobutyl)picolinamide] | 0/0/0% | 0/0/0% | 0/0/0% | 30% | 20% | 20% |
| O=C1CC[C@H](N2C(=O)c3cc(F)c(N4CCC(C(=O)N5CCC(CN6CCN(c7ccc(Nc8ncnc9c8ncn9C8CC(NC(=O)Cc9ccccc9)C8)cc7)CC6)CC5)CC4)cc3C2=O)C(=O)N1 (stereo partly drawn) [Compound 456, N-((1s,3s)-3-(6-((4-(4-((1-(1-(2-(2,6-dioxopiperidin-3-yl)-6-fluoro-1,3-dioxoisoindolin-5-yl)piperidin-4-carbonyl)piperidin-4-yl)methyl)piperazin-1-yl)phenyl)amino)-9H-purin-9-yl)cyclobutyl)-2-phenylacetamide] | 0% | 0% | 10% | 50% | 60% | 70% |
| Cc1cccc(C(=O)N[C@H]2C[C@@H](n3cnc4c(NC5CCN(CCCCCCNc6ccc7c(c6)C(=O)N([C@H]6CCC(=O)NC6=O)C7=O)CC5)ncnc43)C2)n1 [Compound 17, N-((1s,3s)-3-(6-((1-(6-((2-(2,6-dioxopiperidin-3-yl)-1,3-dioxoisoindolin-5-yl)amino)hexyl)piperidin-4-yl)amino)-9H-purin-9-yl)cyclobutyl)-6-methylpicolinamide] | 10% | 0% | 0% | 90% | 100% | 50% |
| O=C1CC[C@H](N2C(=O)c3cc(F)c(N4CCC(CCCN5CCN(c6ccc(Nc7ncnc8c7ncn8[C@H]7C[C@@H](NC(=O)Cc8ccccc8)C7)cc6)CC5)CC4)cc3C2=O)C(=O)N1 [Compound 458, N-((1s,3s)-3-(6-((4-(4-(3-(1-(2-(2,6-dioxopiperidin-3-yl)-6-fluoro-1,3-dioxoisoindolin-5-yl)piperidin-4-yl)propyl)piperazin-1-yl)phenyl)amino)-9H-purin-9-yl)cyclobutyl)-2-phenylacetamide] | 10% | 10% | 20% | 50/50/50% | 50/50/50% | 50/50/50% |
